This passage reports IC50 results from patent US20250313563A1, “GLYCOGEN SYNTHASE KINASE 3 INHIBITORS AND USES THEREOF” (The Broad Institute, Inc., priority 2022, published 2025).

Where two headings read alike, the source gives them in different places. Some results are limits rather than exact numbers.

Assay [1] has as its target GSK3b (GST-full length GSK3b) (Homo sapiens (Human), UniProt P49841). Put plainly: GSK3b TR-FRET kinase assay. It counts as biochemical. The method, boiled down:
(§1)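 Full-length GST-tagged human enzyme (1 nM) is exposed to test compound for 30 min before substrates are added. Phosphorylation of a primed biotinylated glycogen synthase peptide proceeds 100 min at room temperature at low ATP (4 μM α; 2 μM β) or high ATP (1 mM). Product is quantified by TR-FRET.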
(In general: Time-resolved FRET reads energy transfer from a long-lived donor to a nearby acceptor.)

Assay [2] has as its target GSK3α (GST-full length GSK3α) (Homo sapiens (Human), UniProt P49840). Put plainly: GSK3α TR-FRET kinase assay. The format is biochemical. The method, boiled down: as §1
The mark [3] stands for this setting: 1 nM GSK3b, 2 μM ATP, 30 minute preincubation, read-out: GSK3-B TR-FRET BIOCHEMICAL (TR-FRET), IC50.
Where [4] appears, read: GSK3-B (TR-FRET 1 mM ATP), GMean, IC50, 1 mM ATP, geometric mean.
Setting [5] is: 1 nM GSK3α, 4 μM ATP, 30 minute preincubation, read-out: GSK3-A TR-FRET BIOCHEMICAL (TR-FRET), IC50.
Setting [6] is: GSK3-A (TR-FRET 1 mM ATP), GMean, IC50, 1 mM ATP, geometric mean.
[7] abbreviates: read-out: GSK3-B (TR-FRET 1 mM ATP), GMean, IC50, 1 mM ATP, geometric mean.
[8] abbreviates: read-out: GSK3-A (TR-FRET 1 mM ATP), GMean, IC50, 1 mM ATP, geometric mean.
Setting [9] is: 1 nM GSK3b, 2 μM ATP, 30 minute preincubation, Table 16, read-out: GSK3-B TR-FRET BIOCHEMICAL (TR-FRET).
[10] abbreviates: 1 nM GSK3α, 4 μM ATP, 30 minute preincubation, Table 16, read-out: GSK3-A TR-FRET BIOCHEMICAL (TR-FRET).
Where [11] appears, read: 1 nM GSK3b, 2 μM ATP, 30 minute preincubation, Table 16, read-out: GSK3-B TR-FRET BIOCHEMICAL (TR-FRET), IC50.
Where [12] appears, read: 1 nM GSK3α, 4 μM ATP, 30 minute preincubation, Table 16, read-out: GSK3-A TR-FRET BIOCHEMICAL (TR-FRET), IC50.
[13] abbreviates: 1 nM GSK3b, 2 μM ATP, 30 minute preincubation, geometric mean, read-out: GSK3-B TR-FRET BIOCHEMICAL (TR-FRET), GMean, IC50.
[14] abbreviates: 1 nM GSK3α, 4 μM ATP, 30 minute preincubation, geometric mean, read-out: GSK3-A TR-FRET BIOCHEMICAL (TR-FRET), GMean, IC50.

GSK3b (GST-full length GSK3b), sequence (P49841 whole entry): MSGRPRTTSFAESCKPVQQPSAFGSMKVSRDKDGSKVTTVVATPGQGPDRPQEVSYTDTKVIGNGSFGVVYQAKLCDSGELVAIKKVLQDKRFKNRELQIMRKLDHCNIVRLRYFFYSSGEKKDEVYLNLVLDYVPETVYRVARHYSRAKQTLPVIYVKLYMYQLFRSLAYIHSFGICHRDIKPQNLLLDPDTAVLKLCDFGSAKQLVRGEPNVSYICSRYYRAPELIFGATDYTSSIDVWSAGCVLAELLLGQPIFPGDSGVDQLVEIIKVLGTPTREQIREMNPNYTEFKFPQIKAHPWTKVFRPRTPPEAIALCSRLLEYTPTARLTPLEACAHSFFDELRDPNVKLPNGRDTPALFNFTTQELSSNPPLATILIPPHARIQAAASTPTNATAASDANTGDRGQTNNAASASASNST
GSK3α (GST-full length GSK3α), sequence (P49840 whole entry): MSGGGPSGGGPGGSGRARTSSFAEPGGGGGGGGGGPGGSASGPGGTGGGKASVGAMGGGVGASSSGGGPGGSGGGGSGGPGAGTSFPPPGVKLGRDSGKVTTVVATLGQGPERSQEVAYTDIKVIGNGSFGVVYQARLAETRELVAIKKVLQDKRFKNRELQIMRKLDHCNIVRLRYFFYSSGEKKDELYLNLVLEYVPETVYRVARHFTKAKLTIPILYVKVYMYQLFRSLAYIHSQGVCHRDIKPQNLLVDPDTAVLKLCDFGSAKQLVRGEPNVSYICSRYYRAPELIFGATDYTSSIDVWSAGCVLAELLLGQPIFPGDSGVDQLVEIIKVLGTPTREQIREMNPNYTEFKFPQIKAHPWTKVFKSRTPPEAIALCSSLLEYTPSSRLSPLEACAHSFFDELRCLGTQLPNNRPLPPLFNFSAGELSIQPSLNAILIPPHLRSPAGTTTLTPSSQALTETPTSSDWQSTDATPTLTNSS

In the case of `CCC1(c2cccc(C(F)(F)F)c2)C2=C(CC(C)(C)NC2=O)Nc2n[nH]cc21` (stereo not shown) [Compound 913006, 4-ethyl-7,7-dimethyl-4-(3-(trifluoromethyl)phenyl)-2,4,6,7,8,9-hexahydro-5H-pyrazolo[3,4-b][1,6]naphthyridin-5-one], the IC50 in assay [1] (setting [3]) is at most 100 nM; in assay [1] (setting [4]), above 5000 nM; in assay [2] (setting [5]) it was at most 100 nM; in assay [2] (setting [6]), 100 to 1000 nM.

As to `CN1CC2(C3=C(CC(C)(C)CC3=O)Nc3n[nH]c(CC(C)(C)C)c32)c2ccccc21` (stereo not shown) [Compound 125979], the IC50 in assay [1] (setting [7]) was 1000 to 5000 nM; in assay [2] (setting [8]), above 5000 nM.

`CO[C@H]1CC[C@]2(CC1)C1=C(CC(C)(C)CC1=O)Nc1n[nH]cc12` [Compound 884119]: the IC50 is 100 to 1000 nM in assay [1] (setting [9]) and at most 100 nM in assay [2] (setting [10]).

For `CC(C)[C@H]1C[C@]2(CCO1)C1=C(CC(C)(C)CC1=O)Nc1n[nH]cc12` [Compound 884014], the IC50 in assay [1] (setting [11]) was above 5000 nM; in assay [2] (setting [12]), 1000 to 5000 nM.

`CC[C@]1(c2cccc(-c3ccnc(C)c3F)c2)C2=C(CC(C)(C)NC2=O)Nc2n[nH]cc21` [Compound 948306]: the IC50 is 100 to 1000 nM in assay [1] (setting [13]) and at most 100 nM in assay [2] (setting [14]).

For `CC1(C)CC(=O)C2=C(C1)Nc1n[nH]cc1C21CCC(c2ccccc2)CC1` (stereo not shown) [Compound 912084], the IC50 in assay [1] (setting [9]) and in assay [2] (setting [10]) was at most 100 nM each time.

In the case of `CC[C@]1(c2cccc(C(C)C)c2)C2=C(CC(C)(C)NC2=O)Nc2n[nH]c(C(F)(F)F)c21` [Compound 950493], the IC50 in assay [1] (setting [11]) and in assay [2] (setting [12]) was 100 to 1000 nM throughout.

For the molecule `CC[C@@]1(c2cccc(C(C)C)c2)C2=C(CC(C)(C)NC2=O)Nc2n[nH]c(C)c21` [Compound 949646], the IC50 in assay [1] (setting [11]) and in assay [2] (setting [12]) was above 5000 nM throughout.

Regarding `CC[C@]1(c2cccc(N(C)c3ncccn3)c2)C2=C(CC(C)(C)NC2=O)Nc2n[nH]c(Cl)c21` [Compound 951592], the IC50 in assay [1] (setting [11]) and in assay [2] (setting [12]) was above 5000 nM each time.

For the molecule `CC1(C)CC(=O)C2=C(C1)Nc1n[nH]cc1C21COC2(CN(C(=O)C3CC3(F)F)C2)C1` (stereo not shown) [Compound 947272], the IC50 in assay [1] (setting [3]) and in assay [2] (setting [5]) was at most 100 nM throughout.

On to `C[C@H]1C[C@]2(CCN1S(=O)(=O)c1ccn(C)n1)C1=C(CC(C)(C)CC1=O)Nc1n[nH]cc12` [Compound 926832], for which the IC50 in assay [1] (setting [9]) is 100 to 1000 nM; in assay [2] (setting [10]), at most 100 nM.

With `CC(=O)N1CCC2(C1)CC1(CO2)C2=C(CC(C)(C)CC2=O)Nc2n[nH]cc21` (stereo not shown) [Compound 948040], the IC50 in assay [1] (setting [3]) was 100 to 1000 nM; in assay [2] (setting [5]), at most 100 nM.

Take `CCC1(c2cccc(C(F)(F)F)c2)C2=C(Nc3n[nH]cc31)C(C)NC2=O` (stereo not shown) [Compound 945378]: the IC50 in assay [1] (setting [3]) is 100 to 1000 nM; in assay [2] (setting [5]), at most 100 nM.

As for `CC[C@@]1(c2cccc(-c3ccncc3C)c2)C2=C(C[C@@]3(CCCOC3)NC2=O)Nc2n[nH]cc21` [Compound 947911], the IC50 in assay [1] (setting [13]) and in assay [2] (setting [14]) was at most 100 nM in each case.

Take `CCC1(c2cccc(N(C)c3cnn(C)c3)c2)C2=C(CC(C)(C)CC2=O)Nc2n[nH]cc21` (stereo not shown) [Compound 885382]: the IC50 lay in the range of 1000 to 5000 nM in assay [1] (setting [11]) and 100 to 1000 nM in assay [2] (setting [12]).

`CC1CCC(C(=O)N2CC3(C2)CC2(CO3)C3=C(CC(C)(C)CC3=O)Nc3n[nH]cc32)C1` (stereo not shown) [Compound 947268]: the IC50 in assay [1] (setting [3]) and in assay [2] (setting [5]) was at most 100 nM throughout.

Take `CCC1(c2cccc(N(C)c3cc(C)ccn3)c2)C2=C(CC(C)(C)CC2=O)Nc2n[nH]cc21` (stereo not shown) [Compound 943537]: the IC50 was 100 to 1000 nM in assay [1] (setting [9]) and at most 100 nM in assay [2] (setting [10]).

Take `CC[C@]1(c2cccc(N(C)C(C)=O)c2)C2=C(CC(C)(C)CC2=O)Nc2n[nH]cc21` [Compound 810359]: the IC50 in assay [1] (setting [13]) and in assay [2] (setting [14]) was above 5000 nM each time.

In the case of `CCC1(c2cccc(C(F)F)c2)C2=C(CC(C)(C)NC2=O)Nc2n[nH]c(C(F)(F)F)c21` (stereo not shown) [Compound 948305], the IC50 in assay [1] (setting [13]) and in assay [2] (setting [14]) was at most 100 nM throughout.

For the molecule `CC[C@]1(c2cccc(-c3cc(C)ncc3C)c2)C2=C(CC(C)(C)CC2=O)Nc2n[nH]c(C)c21` [Compound 913050], the IC50 in assay [1] (setting [11]) was at most 100 nM; in assay [1] (setting [7]), 100 to 1000 nM; in assay [2] (setting [12]) it was at most 100 nM; in assay [2] (setting [8]) it was at most 100 nM.

For `CC1(C)CC(=O)C2=C(C1)Nc1n[nH]cc1C21CN(c2ccccn2)C1` [Compound 945477], the IC50 in assay [1] (setting [11]) and in assay [2] (setting [12]) was 1000 to 5000 nM in each case.

Regarding `CC[C@]1(c2cccc(-c3cnn(-c4ccncn4)c3)c2)C2=C(CC(C)(C)NC2=O)Nc2n[nH]cc21` [Compound 952016], the IC50 in assay [1] (setting [11]) fell in the range of 1000 to 5000 nM; in assay [2] (setting [12]) it was 100 to 1000 nM.

In the case of `CC1(C)CC(=O)C2=C(C1)Nc1n[nH]cc1[C@]21CCCN(S(=O)(=O)Cc2ccccc2)CC1` [Compound 945483], the IC50 in assay [1] (setting [9]) and in assay [2] (setting [10]) was 100 to 1000 nM throughout.

Take `CCN(C(C)=O)c1cccc(C2(CC)C3=C(CC(C)(C)CC3=O)Nc3n[nH]cc32)c1` (stereo not shown) [Compound 909215]: the IC50 in assay [1] (setting [11]) lay within 1000 to 5000 nM; in assay [2] (setting [12]), 100 to 1000 nM.

Turning to `CCC1(c2cccc(C(F)(F)F)c2)C2=C(CN(Cc3ccccc3)C2=O)Nc2n[nH]cc21` (stereo not shown) [Compound 929388], the figures for the IC50 in assay [1] (setting [9]), in assay [1] (setting [7]) and in assay [2] (setting [8]) were 100 to 1000 nM, above 5000 nM and 100 to 1000 nM, respectively.

`CC[C@]1(c2ccccc2)C2=C(C[C@@H](c3ccccc3)CC2=O)Nc2n[nH]cc21` [Compound 791264]: the IC50 in assay [1] (setting [13]) was above 5000 nM; in assay [2] (setting [14]), 100 to 1000 nM.

On to `CCn1nccc1S(=O)(=O)N1CCC2(CC1)C1=C(CC(C)(C)CC1=O)Nc1n[nH]cc12` [Compound 945664], for which the IC50 in assay [1] (setting [9]) and in assay [2] (setting [10]) was at most 100 nM in each case.

Regarding `Cc1cccc(S(=O)(=O)N2CC[C@]3(C2)C2=C(CC(C)(C)CC2=O)Nc2n[nH]cc23)c1` [Compound 951863], the IC50 in assay [1] (setting [3]) was at most 100 nM; in assay [1] (setting [4]) it was 100 to 1000 nM; in assay [2] (setting [5]), at most 100 nM; in assay [2] (setting [6]) it was 100 to 1000 nM.

For `CCC1(c2cccc(-c3ccnc4c3CCCC4)c2)C2=C(CN(Cc3ccccc3)C2=O)Nc2n[nH]cc21` (stereo not shown) [Compound 948551], the figures for the IC50 in assay [1] (setting [3]) and in assay [2] (setting [5]) were 100 to 1000 nM and at most 100 nM, respectively.

With `CC[C@@]1(c2cccc(N(C)c3ncccn3)c2)C2=C(CC(C)(C)NC2=O)Nc2n[nH]cc21` [Compound 943964], the IC50 was at most 100 nM in assay [1] (setting [3]), 1000 to 5000 nM in assay [1] (setting [7]), at most 100 nM in assay [2] (setting [5]) and 100 to 1000 nM in assay [2] (setting [8]).

As to `CC1(C)CC(=O)C2=C(C1)Nc1n[nH]cc1C21CCN(S(C)(=O)=O)C1` (stereo not shown) [Compound 912092], the IC50 in assay [1] (setting [9]) and in assay [2] (setting [10]) was at most 100 nM throughout.

Take `CCC1(c2cccc(Cc3ncccn3)c2)C2=C(CC(C)(C)NC2=O)Nc2n[nH]cc21` (stereo not shown) [Compound 950151]: the IC50 in assay [1] (setting [11]) is 1000 to 5000 nM; in assay [2] (setting [12]) it was at most 100 nM.

Regarding `CCC1(c2cccc(S(=O)(=O)C3CCOCC3)c2)C2=C(CC(C)(C)CC2=O)Nc2n[nH]cc21` (stereo not shown) [Compound 927344], the IC50 in assay [1] (setting [11]) and in assay [2] (setting [12]) was at most 100 nM each time.

For the molecule `CC1(C)CC(=O)C2=C(C1)Nc1n[nH]cc1C21COC2(CN(C(=O)OC(C)(C)C)C2)C1` (stereo not shown) [Compound 911083], the IC50 in assay [1] (setting [3]) was in the range of 1000 to 5000 nM; in assay [2] (setting [5]), 100 to 1000 nM.

`CCC1(c2cccc(N(C)c3ccnc(OC)c3)c2)C2=C(CC(C)(C)CC2=O)Nc2n[nH]cc21` (stereo not shown) [Compound 932642]: the figures for the IC50 in assay [1] (setting [11]) and in assay [2] (setting [12]) were 100 to 1000 nM and at most 100 nM, respectively.
